Measurements reported in ChEMBL document CHEMBL3286299, “Synthesis and in vitro evaluation of 4-trichloromethylpyrrolo[1,2-a]quinoxalines as new antiplasmodial agents” (Eur J Med Chem, 2014).

Key:
[1] = test system: Plasmodium falciparum; assay: Antiplasmodial activity against chloroquine-, pyrimethamine- and proguanil-resistant Plasmodium falciparum K1 infected in human erythrocytes after 72 hrs by SYBR Green I fluorescence-based method; type: functional, organism-based; settings: K1, 72 h
[2] = Cytotoxicity against human HepG2 cells after 72 hrs by MTT assay; type: cell-based
[3] = Selectivity index, ratio of CC50 for human HepG2 cells to IC50 for chloroquine-, pyrimethamine- and proguanil-resistant Plasmodium falciparum K1 infected in human erythrocytes; type: functional
[4] = Selectivity index, ratio of CC50 for human HepG2 cells to IC50 for Plasmodium falciparum W2; type: functional

Row | SMILES | IC50 [1] | CC50 at 72 h [2] | Ratio CC50/IC50 [3] | Ratio CC50/IC50 [4]
1 | ClC(Cl)(Cl)c1nc2ccccc2nc1-c1ccccc1 | 0.2 µM | 3.5 µM | 17.5 | 
2 | Cc1cnc2ccccc2n1 | > 50 µM | > 500 µM |  | 
3 | N#Cc1ccc2c(c1)nc(C(Cl)(Cl)Cl)c1cccn12 | 1.5 µM | 17 µM | 11.3 | 
4 | ClC(Cl)(Cl)c1cnc2ccccc2n1 | 1.5 µM | 3.1 µM | 2.1 | 
5 | Cc1nccc2ccccc12 | > 50 µM | 179 µM | <3.6 | 
6 | Cc1nc2ccccc2n2cccc12 | > 50 µM | 120 µM | <2.4 | 
7 | O=C(O)c1ccc2c(c1)nc(C(Cl)(Cl)Cl)c1cccn12 | 22 µM | 106 µM | <10.6 | 
8 | ClC(Cl)(Cl)c1nc(-c2ccccc2)c2ccccc2n1 |  | > 125 µM |  | >15.6
9 | ClC(Cl)(Cl)c1ncc2ccccc2n1 | 17.6 µM | 61 µM | 3.5 | 
10 | FC(F)(F)c1nc2ccccc2n2cccc12 | > 50 µM | 160 µM | <3.2 | 
11 | N/C(=N/O)c1ccc2c(c1)nc(C(Cl)(Cl)Cl)c1cccn12 | 1.75 µM | > 15 µM | >8.6 | 
12 | Cc1ncc2ccccc2n1 | > 50 µM | 350 µM | <7 | 
13 | ClC(Cl)(Cl)c1nccc2ccccc12 | 8 µM | 180 µM | 22.5 | 
14 | C[C@H]1c2cccc(O)c2C(=O)C2=C(O)[C@]3(O)C(=O)C(C(N)=O)=C(O)[C@@H](N(C)C)[C@@H]3[C@@H](O)[C@@H]21.O [DOXYCYCLINE] | 6 µM |  | 3.3 | 
15 | Fc1ccc2c(c1)nc(C(Cl)(Cl)Cl)c1cccn12 | 1.7 µM | > 15 µM | >8.8 | 
16 | ClC(Cl)(Cl)c1nc2ccccc2n2cccc12 | 1.5 µM | 41.2 µM | 27.5 | 
17 | COc1ccc2c(c1)nc(C(Cl)(Cl)Cl)c1cccn12 | 4.2 µM | 35 µM | 8.3 | 
18 | Clc1ccc2c(c1)nc(C(Cl)(Cl)Cl)c1cccn12 | 1.6 µM | 9.8 µM | 6.1 | 
19 | ClC(Cl)(Cl)c1ncnc2ccccc12 | > 50 µM | > 500 µM |  | 
20 | FC(F)(F)c1cnc2ccccc2n1 | > 50 µM | > 500 µM |  | 
21 | ClC(Cl)c1cnc2ccccc2n1 | 12.8 µM | 19.3 µM | 1.5 | 
22 | Cc1ccc2c(c1)nc(C)c1cccn12 | > 50 µM | 57 µM | <4.7 | 
23 | Cc1nc2cc(C#N)ccc2n2cccc12 | > 50 µM | > 31.5 µM |  | 
24 | Cc1ccc2c(c1)nc(C(Cl)(Cl)Cl)c1cccn12 | 2.4 µM | 53 µM | 22.1 | 
25 | Cc1ccc2ccccc2n1 [QUINALDINE] | > 50 µM | > 500 µM |  | 
26 | c1ccc2nccnc2c1 [QUINOXALINE] | > 50 µM | > 500 µM |  | 
27 | ClC(Cl)(Cl)c1nc2cc(I)ccc2n2cccc12 | 1.2 µM | 6.6 µM | 5.5 | 
